Each structure is given as a SMILES string.

These results are taken from patent publication US20250223300A1, “MACROCYCLIC COMPOUND AND PHARMACEUTICAL COMPOSITION AND USE THEREOF” (BETTA PHARMACEUTICALS CO., LTD, priority 2022, published 2025).

What all share (assay type): cell-based
Experiment [1] has as its target Ba/F3 cells overexpressing EGFR Del19/T790M/C797S (Homo sapiens, UniProt P00533, T790M/C797S, cells depend on it, form not given). Kind of experiment: Cell proliferation inhibitory activity assay, Ba/F3 EGFR Del19/T790M/C797S. The settings on record: cell proliferation inhibition, 72 hours, luminescence; read-out: Ba/F3 cells overexpressing different EGFR mutations IC50 (nM) Del19/T790M/C797S. How it is done: (§1) Suspension cells Ba/F3 (EGFR. Dell9/T790M/C797S), Ba/F3 (EGFR L858R/T790M/C797S), Ba/F3 (EGFR Del19/C797S), and Ba/F3 (EGFR L858R/C797S) overexpressing different EGFR mutations were cultured in PRMI 1640 containing 10% FBS and 1% PS, and adherent cells A431 carrying EGFR WT were cultured in DMEM containing 10% FBS and 1% PS. The experimental steps for compound activity detection are as follows: • (1) Take adherent cells in the logarithmic growth phase, digest them with trypsin count them, and then inoculate them into a 96-well plate at a certain density. Incubate them overnight at 37° C. and 5% CO2 to allow them to adhere.
(§2) Y=minimum+([…])/(1+10^((Log IC50−X)*slope)); • X: logarithm of compound concentration; Y: cell survival inhibition rate.

In experiment [2] the target is Ba/F3 (EGFR L858R/T790M/C797S) (Homo sapiens, UniProt P00533, T790M/C797S/L858R, cells depend on it). Kind of experiment: Cell proliferation inhibitory activity assay, Ba/F3 EGFR L858R/T790M/C797S. Conditions: cell proliferation inhibition, 72 hours, luminescence; read-out: Ba/F3 cells overexpressing different EGFR mutations IC50 (nM) L858R/T790M/C797S. How it is done: as §1, §2
Chain of Ba/F3 (EGFR L858R/T790M/C797S) (P00533 whole entry T790M/C797S/L858R): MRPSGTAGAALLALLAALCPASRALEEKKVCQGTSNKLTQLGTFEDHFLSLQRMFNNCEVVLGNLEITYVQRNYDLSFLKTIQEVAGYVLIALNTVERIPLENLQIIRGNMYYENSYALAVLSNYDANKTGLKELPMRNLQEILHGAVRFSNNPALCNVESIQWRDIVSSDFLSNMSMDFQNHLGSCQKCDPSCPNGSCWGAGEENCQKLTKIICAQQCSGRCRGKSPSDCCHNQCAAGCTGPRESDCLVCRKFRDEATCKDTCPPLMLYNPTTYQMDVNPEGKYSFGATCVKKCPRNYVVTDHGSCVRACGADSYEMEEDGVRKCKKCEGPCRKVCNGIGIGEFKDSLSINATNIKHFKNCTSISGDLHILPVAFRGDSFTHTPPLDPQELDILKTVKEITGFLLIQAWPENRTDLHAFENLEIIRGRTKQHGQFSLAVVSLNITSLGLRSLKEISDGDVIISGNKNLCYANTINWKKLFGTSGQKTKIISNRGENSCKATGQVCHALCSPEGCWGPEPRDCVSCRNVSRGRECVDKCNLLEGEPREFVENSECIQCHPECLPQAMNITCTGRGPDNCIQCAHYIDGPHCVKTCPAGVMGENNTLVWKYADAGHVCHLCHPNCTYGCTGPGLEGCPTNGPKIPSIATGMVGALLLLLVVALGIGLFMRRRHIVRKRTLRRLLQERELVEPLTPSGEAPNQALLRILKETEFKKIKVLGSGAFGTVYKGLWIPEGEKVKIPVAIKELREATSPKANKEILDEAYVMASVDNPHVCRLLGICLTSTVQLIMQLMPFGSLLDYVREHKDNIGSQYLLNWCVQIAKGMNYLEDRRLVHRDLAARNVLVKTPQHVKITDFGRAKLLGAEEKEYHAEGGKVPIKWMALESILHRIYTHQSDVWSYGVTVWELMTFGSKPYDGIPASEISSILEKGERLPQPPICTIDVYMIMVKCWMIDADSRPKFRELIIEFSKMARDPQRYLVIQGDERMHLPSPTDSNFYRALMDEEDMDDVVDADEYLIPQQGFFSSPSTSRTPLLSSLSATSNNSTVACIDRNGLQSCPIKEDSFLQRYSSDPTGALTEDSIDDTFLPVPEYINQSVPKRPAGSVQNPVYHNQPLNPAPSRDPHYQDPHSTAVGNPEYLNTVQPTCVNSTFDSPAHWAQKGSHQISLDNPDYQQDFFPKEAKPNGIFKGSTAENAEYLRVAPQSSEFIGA

For experiment [3], the target named is Ba/F3 (EGFR Del19/C797S) (Homo sapiens, UniProt P00533, C797S, cells depend on it, form not given). Kind of experiment: Cell proliferation inhibitory activity assay, Ba/F3 EGFR Del19/C797S. Conditions: cell proliferation inhibition, 72 hours, luminescence; read-out: Ba/F3 cells overexpressing different EGFR mutations IC50 (nM) Del19/C797S. On the procedure:
as §1, §2

Experiment [4] concerns the target Ba/F3 (EGFR L858R/C797S) (Homo sapiens, UniProt P00533, C797S/L858R, cells depend on it). Kind of experiment: Cell proliferation inhibitory activity assay, Ba/F3 EGFR L858R/C797S. The settings on record: cell proliferation inhibition, 72 hours, luminescence; read-out: Ba/F3 cells overexpressing different EGFR mutations IC50 (nM) L858R/C797S. On the procedure: as §1, §2

Experiment [5] concerns A431 cell carrying EGFR WT. Kind of experiment: Cell proliferation inhibitory activity assay, A431. Conditions: Homo sapiens, A-431; cell proliferation inhibition, 72 hours, luminescence. How it is done:
as §1, §2

Chain of Ba/F3 cells overexpressing EGFR Del19/T790M/C797S (P00533 with tags, fused parts or gaps DEL746-750/T790M/C797S, form open): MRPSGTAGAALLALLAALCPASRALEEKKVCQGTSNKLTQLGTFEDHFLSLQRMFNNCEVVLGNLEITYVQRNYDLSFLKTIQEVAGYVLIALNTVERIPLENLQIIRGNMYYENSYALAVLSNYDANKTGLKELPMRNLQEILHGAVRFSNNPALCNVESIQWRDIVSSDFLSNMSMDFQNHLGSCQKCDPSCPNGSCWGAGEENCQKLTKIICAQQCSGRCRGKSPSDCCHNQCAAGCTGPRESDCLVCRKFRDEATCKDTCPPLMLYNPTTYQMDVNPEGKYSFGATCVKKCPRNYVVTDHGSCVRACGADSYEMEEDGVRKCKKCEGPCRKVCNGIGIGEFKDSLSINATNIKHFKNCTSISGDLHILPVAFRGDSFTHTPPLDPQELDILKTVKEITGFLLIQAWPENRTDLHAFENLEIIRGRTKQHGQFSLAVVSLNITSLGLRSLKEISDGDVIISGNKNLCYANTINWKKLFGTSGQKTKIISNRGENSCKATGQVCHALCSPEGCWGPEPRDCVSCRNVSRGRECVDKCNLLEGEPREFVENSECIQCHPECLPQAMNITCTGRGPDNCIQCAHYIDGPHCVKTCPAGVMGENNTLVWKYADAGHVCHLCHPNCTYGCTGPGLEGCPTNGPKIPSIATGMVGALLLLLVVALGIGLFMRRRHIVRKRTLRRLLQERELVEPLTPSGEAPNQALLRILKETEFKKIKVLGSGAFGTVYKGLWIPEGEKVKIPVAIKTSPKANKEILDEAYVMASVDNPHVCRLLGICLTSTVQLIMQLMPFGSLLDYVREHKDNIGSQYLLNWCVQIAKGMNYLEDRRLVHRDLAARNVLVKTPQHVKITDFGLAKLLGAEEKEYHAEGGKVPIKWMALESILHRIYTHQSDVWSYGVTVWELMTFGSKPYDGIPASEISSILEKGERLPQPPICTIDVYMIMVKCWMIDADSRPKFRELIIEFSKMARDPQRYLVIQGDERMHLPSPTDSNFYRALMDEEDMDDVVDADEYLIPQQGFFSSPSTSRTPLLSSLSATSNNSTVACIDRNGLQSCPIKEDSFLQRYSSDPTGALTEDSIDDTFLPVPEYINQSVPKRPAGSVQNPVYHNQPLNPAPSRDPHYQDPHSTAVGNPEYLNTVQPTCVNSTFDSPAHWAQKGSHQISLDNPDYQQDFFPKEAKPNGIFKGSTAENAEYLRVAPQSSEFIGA
Chain of Ba/F3 (EGFR L858R/C797S) (P00533 whole entry C797S/L858R): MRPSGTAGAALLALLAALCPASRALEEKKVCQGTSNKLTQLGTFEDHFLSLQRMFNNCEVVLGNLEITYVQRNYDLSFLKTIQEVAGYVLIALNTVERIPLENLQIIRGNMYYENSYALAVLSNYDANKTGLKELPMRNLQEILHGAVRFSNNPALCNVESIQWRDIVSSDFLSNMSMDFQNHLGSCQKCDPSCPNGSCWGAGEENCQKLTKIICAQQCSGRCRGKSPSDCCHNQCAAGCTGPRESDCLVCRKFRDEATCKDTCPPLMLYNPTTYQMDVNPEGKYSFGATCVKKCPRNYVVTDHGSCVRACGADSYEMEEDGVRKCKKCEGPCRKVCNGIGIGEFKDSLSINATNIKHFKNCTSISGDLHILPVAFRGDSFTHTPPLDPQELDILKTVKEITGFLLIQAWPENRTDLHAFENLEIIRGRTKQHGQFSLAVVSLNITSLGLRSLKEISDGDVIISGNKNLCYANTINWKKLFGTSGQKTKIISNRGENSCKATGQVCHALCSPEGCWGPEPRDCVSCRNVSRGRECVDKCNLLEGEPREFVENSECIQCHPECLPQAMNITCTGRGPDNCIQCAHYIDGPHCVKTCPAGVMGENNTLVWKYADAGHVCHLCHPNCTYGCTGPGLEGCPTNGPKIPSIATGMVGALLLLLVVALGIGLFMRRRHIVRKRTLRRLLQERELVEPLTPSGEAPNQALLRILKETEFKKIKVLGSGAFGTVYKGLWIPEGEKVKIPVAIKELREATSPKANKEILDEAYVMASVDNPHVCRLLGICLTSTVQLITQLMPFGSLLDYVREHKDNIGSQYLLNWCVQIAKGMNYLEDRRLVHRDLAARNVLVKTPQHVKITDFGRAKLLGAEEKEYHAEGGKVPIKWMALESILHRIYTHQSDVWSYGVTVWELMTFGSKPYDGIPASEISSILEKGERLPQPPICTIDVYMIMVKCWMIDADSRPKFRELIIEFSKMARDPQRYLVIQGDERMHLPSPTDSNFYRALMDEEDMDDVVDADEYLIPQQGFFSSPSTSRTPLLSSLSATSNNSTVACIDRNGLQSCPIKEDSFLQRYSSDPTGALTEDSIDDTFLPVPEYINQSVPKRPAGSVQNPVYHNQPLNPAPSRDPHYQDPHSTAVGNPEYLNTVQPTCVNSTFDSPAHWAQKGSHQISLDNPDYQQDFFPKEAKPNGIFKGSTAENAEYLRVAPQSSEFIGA
Chain of Ba/F3 (EGFR Del19/C797S) (P00533 with tags, fused parts or gaps DEL746-750/C797S, form open): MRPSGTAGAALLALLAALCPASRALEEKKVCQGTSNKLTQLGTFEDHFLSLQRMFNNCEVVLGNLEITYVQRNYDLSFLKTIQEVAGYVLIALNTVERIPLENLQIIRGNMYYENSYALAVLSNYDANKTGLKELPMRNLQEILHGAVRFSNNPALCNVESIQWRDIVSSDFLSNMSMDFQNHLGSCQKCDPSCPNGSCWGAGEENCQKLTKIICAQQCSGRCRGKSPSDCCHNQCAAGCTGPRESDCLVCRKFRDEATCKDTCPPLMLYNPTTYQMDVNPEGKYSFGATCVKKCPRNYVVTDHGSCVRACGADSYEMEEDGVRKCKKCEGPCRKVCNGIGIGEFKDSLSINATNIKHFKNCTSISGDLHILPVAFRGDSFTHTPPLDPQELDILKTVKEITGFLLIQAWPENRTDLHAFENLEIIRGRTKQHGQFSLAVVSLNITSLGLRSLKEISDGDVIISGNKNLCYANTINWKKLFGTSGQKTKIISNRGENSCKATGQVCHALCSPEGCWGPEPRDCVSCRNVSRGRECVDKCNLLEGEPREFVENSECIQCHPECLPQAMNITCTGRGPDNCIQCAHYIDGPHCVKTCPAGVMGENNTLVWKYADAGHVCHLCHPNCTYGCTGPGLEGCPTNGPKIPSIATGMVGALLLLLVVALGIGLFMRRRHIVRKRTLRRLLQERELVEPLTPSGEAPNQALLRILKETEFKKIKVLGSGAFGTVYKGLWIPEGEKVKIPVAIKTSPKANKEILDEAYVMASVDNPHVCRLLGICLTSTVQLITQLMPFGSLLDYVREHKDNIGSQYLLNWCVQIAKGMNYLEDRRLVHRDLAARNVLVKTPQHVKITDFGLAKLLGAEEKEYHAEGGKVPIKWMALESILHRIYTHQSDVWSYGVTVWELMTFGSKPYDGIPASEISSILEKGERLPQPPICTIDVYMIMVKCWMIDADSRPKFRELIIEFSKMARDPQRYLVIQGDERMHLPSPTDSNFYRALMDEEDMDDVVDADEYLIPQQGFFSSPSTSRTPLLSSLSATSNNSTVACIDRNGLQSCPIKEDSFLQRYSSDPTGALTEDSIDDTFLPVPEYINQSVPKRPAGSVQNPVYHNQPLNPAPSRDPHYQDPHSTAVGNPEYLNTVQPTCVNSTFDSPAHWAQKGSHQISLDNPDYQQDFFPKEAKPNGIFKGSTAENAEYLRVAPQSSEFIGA

By IC50 is commonly meant the concentration that inhibits the measured activity by half. In the case of `COCCCN1CCC2(CC1)CCN(c1ccc3nc4n(c3c1)C[C@H](C)CCCOc1cc(F)ncc1-c1cc(cc(C)n1)C(=O)N4)CC2` [Example 17, 1^6-fluoro-5^6-(9-(3-methoxypropyl)-3,9-diazaspiro[5.5]undecan-3-yl)-2^6-methyl-5^1H-11-oxa-4-aza-5(2,1)-benzo[d]imidazola-1(3,4),2(2,4)-dipyridinacycloundecaphan-3-one], the GI50 in experiment [1] was determined as 1.2 nM; in experiment [2], 4.7 nM; in experiment [3], 5 nM; in experiment [4], 18 nM. Further, in experiment [5], half-maximal inhibition (IC50) was put at 1470 nM.
Consider `Cc1cc2cc(n1)-c1cnccc1OCCCCCn1c(nc3cc(F)c(N4CCC5(CCN(CC6COC6)CC5)CC4)cc31)NC2=O` [Example 62, 5^5-fluoro-2^6-methyl-5^6-(9-(oxetan-3-ylmethyl)-3,9-diazaspiro [5.5]undecan-3-yl)-5^1H-11-oxa-4-aza-5(2,1)-benzo[d] imidazola-1(3,4),2(2,4)-dipyridinacyclo-undecaphan-3-one], for which the GI50 was 0.95 nM in experiment [1], 3 nM in experiment [2], 0.57 nM in experiment [3] and 3.8 nM in experiment [4]. Moreover, inhibition in experiment [5] was half-maximal at 772 nM (IC50).
On to `COC(C)(C)CC(C)N1CCC2(CCN(c3ccc4nc5n(c4c3)CCCCCOc3ccncc3-c3cc(cc(C)n3)C(=O)N5)CC2)CC1` (stereo not shown) [Example 90, 5^6-(9-(4-methoxy-4-methylpentan-2-yl)-3,9-diazaspiro[5.5]undecan-3-yl)-2^6-methyl-5^1H-11-oxa-4-aza-5(2,1)-benzo[d] imidazola-1(3,4),2(2,4)-dipyridinacyclo-undecaphan-3-one], for which the GI50 in experiment [1] is 4.2 nM; in experiment [2] it was 12 nM; in experiment [3], 4 nM; in experiment [4] it was 31 nM. Moreover, in experiment [5], the IC50 was determined as 733 nM.
The like results for `Cc1cc2cc(n1)-c1cnccc1OCCCCCn1c(nc3cc(F)c(N4CCC5(CC4)CCN(C4CC4)CC5)cc31)NC2=O` [Example 65, 5^6-(9-cyclopropyl-3,9-diazasptro [5.5]undecan-3-yl)-5^5-fluoro-2^6-methyl-5^1H-11-oxa-4-aza-5(2,1)-benzo [d]imidazola-1(3,4),2(2,4)-dipyridinacyclo-undecaphan-3-one] were, in that order, 1.1 nM, 2.3 nM, 0.69 nM, 4.6 nM and 1250 nM.
For `COCCN1CCC2(CC1)CCN(c1ccc3nc4n(c3c1)CCCCCOc1ccncc1-c1cc(cc(C)n1)C(=O)N4)CC2` [Example 75, 5^6-(9-(2-methoxy-ethyl)-3,9-diazaspiro[5.5]undecan-3-yl)-2^6-methyl-5^1H-11-oxa-4-aza-5(2,1)-benzo[d] imidazola-1(3,4), 2(2,4)-dipyridinacyclo-undecaphan-3-one], the GI50 in experiment [1] was determined as 0.07 nM; in experiment [2] it was 0.08 nM; in experiment [3] it was 0.11 nM; in experiment [4] it was 0.07 nM. In experiment [5], this molecule yielded a half-inhibitory concentration (IC50) of 646 nM.
Regarding `Cc1cc2cc(n1)-c1cnccc1OCCCCCn1c(nc3ccc(N4CCC5(CCN(CCC(N)=O)CC5)CC4)cc31)NC2=O` [Example 18, 3-(9-(2^6-methyl-3-oxo-5^1H-11-oxa-4-aza-5(2,1)-benzo[d]imidazola-1(3,4),2(2,4)-dipyridinacycloundecaphane-5^6-yl)-3,9-diazaspiro[5.5]undecan-3-yl)propanamide], the GI50 in experiment [1] was determined as 0.77 nM; in experiment [2], 2.1 nM; in experiment [3] it was 0.5 nM; in experiment [4] it was 3.9 nM. In experiment [5], the half-maximal inhibitory concentration (IC50) is 631 nM.
Consider `Cc1cc2cc(n1)-c1cnccc1OCCCC(C)(C)Cn1c(nc3ccc(N4CCC5(CCN(C)CC5)CC4)cc31)NC2=O` [Example 7, 2^6,9,9-trimethyl-5^6-(9-methyl-3,9-diazaspiro[5.5]undecan-3-yl)-5^1H-11-oxa-4-aza-5(2,1)-benzo[d]imidazola-1(3,4),2(2,4)-dipyridinacycloundecaphan-3-one], for which the GI50 in experiment [1] is 1.6 nM; in experiment [2] it was 3.7 nM; in experiment [3], 4.5 nM; in experiment [4], 11 nM. The half-maximal inhibitory concentration (IC50) in experiment [5] is 226 nM.
`Cc1cc2cc(n1)-c1cnccc1OCCC[C@@H](C)Cn1c(nc3cc(C)c(N4CCC5(CCN(C)CC5)CC4)cc31)NC2=O` [Example 11, (R)-2^6,5^3,7-trimethyl-5^6-(9-methyl-3,9-diazaspiro[5.5]undecan-3-yl)-5^1H-11-oxa-4-aza-5(2.I)-benzo[d]imidazola-1(3,4),2(2,4)-dipyridinacycloundecaphan-3-one]: the GI50 in experiment [1] came out at 2.2 nM; in experiment [2], 3.4 nM; in experiment [3], 0.15 nM; in experiment [4], 1 nM. The half-maximal inhibitory concentration (IC50) in experiment [5] amounted to 493 nM.
With `Cc1cc2cc(n1)-c1cnccc1OCCC[C@@H](C)Cn1c(nc3ccc(N4CCC5(CC4)CCN(C4COC4C)CC5)cc31)NC2=O` (stereo partly drawn) [Example 83, (7R)-2^6,7-dimethyl-5^6-(9-(2-methyloxetan-3-yl)-3,9-diazaspiro [5.5]undecan-3-yl)-5^1H-11-oxa-4-aza-5(2,1)-benzo[d] imidazola-1(3,4),2(2,4)-dipyridinacyclo-undecaphan-3-one], the GI50 in experiment [1] stood at 1.3 nM; in experiment [2], 2 nM; in experiment [3] it was 0.27 nM; in experiment [4], 2 nM. This molecule also displayed a 50% inhibitory concentration (IC50) in experiment [5] of 294 nM.
`Cc1cc2cc(n1)-c1cnccc1OCCCCCn1c(nc3cc(F)c(N4CCC5(CCN(CCF)CC5)CC4)cc31)NC2=O` [Example 61, 5^5-fluoro-5^6-(9-(2-fluoroethyl)-3,9-diazaspiro [5.5]undecan-3-yl)-2^6-methyl-5^1H-11-oxa-4-aza-5(2,1)-benzo [d]imidazola-1(3,4),2(2,4)-dipyridinacyclo-undecaphan-3-one]: the GI50 in experiment [1] turned out to be 0.91 nM; in experiment [2], 1.8 nM; in experiment [3], 0.29 nM; in experiment [4], 3 nM. Further, the IC50 in experiment [5] was determined as 1080 nM.
The like results for `Cc1cc2cc(n1)-c1cnccc1OCCC[C@@H](C)Cn1c(nc3ccc(N4CCC5(CC4)CCN(C4COC4(C)C)CC5)cc31)NC2=O` (stereo partly drawn) [Example 82, (7R)-5^6-(9-(2,2-dimethyloxetan-3-yl)-3,9-diazaspiro[5.5]undecan-3-yl)-2^6,7-dimethyl-5^1H-11-oxa-4-aza-5(2,1)-benzo [d]imidazola-1(3,4),2(2,4)-dipyridinacyclo-undecaphan-3-one] were, in that order, 4.7 nM, 12 nM, 2.9 nM, 17 nM and 770 nM.
Take `Cc1cc2cc(n1)-c1cnccc1OCCCCCn1c(nc3ccc(N4CCC5(CC4)CCN(C4CC4)CC5)cc31)NC2=O` [Example 89, 5^6-(9-cyclopropyl-3,9-diazaspiro [5.5]undecan-3-yl)-2^6-methyl-5^1H-11-oxa-4-aza-5(2,1)-benzo[d] imidazola-1(3,4),2(2,4)-dipyridinacyclo-undecaphan-3-one]: the GI50 in experiment [1] came to 1.8 nM; in experiment [2] it was 4.6 nM; in experiment [3], 0.71 nM; in experiment [4], 6.5 nM. Besides, in experiment [5], inhibition was half-maximal at 1210 nM (IC50).
On to `Cc1cc2cc(n1)-c1cnccc1OCCCCCn1c(nc3cc(F)c(N4CCC5(CC4)CCN(C4COC4)CC5)cc31)NC2=O` [Example 63, 5^5-fluoro-2^6-methyl-5^6-(9-(oxetan-3-yl)-3,9-diazaspiro[5.5]undecan-3-yl)-5^1H-11-oxa-4-aza-5(2,1)-benzo [d]imidazola-1(3,4),2(2,4)-dipyridinacyclo-undecaphan-3-one], for which the GI50 in experiment [1] came to 0.5 nM; in experiment [2] it was 1.5 nM; in experiment [3], 0.67 nM; in experiment [4], 2 nM. The IC50 in experiment [5] is 472 nM.
Turning to `Cc1cc2cc(n1)-c1cnccc1OCCCCCn1c(nc3ccc(N4CCC5(CCN(CCN(C)C)CC5)CC4)cc31)NC2=O` [Example 87, 5^6-(9-(2-(dimethyl-amino)ethyl)-3,9-diazaspiro [5.5]undecan-3-yl)-2^6-methyl-5^1H-11-oxa-4-aza-5(2,1)-benzo [d]imidazola-1(3,4),2(2,4)-dipyridinacyclo-undecaphan-3-one], the GI50 in experiment [1] came to 5.4 nM; in experiment [2], 11 nM; in experiment [3], 5.8 nM; in experiment [4] it was 21 nM. This molecule also displayed a 50% inhibitory concentration (IC50) in experiment [5] of 1410 nM.
